Columns and labels:
Type in all cases: physicochemical
[1] = Dissolution in flow-through apparatus (flow cell), 10−4N NaOH; details: for Dissolution Rate: 10−4N NaOH, room temperature
Description: In order to test an apparatus associated with the present disclosure against a rotating disk apparatus, the dissolution rate of Triamterene free base was determined in dilute NaOH. The dissolution media was chosen to be 10−4N NaOH, since at alkaline pH, the Triamterene free base is not ionized. This condition makes theoretical comparisons of flux easier since it is not necessary to account for multiple species (ionized and unionized species) and Levich's mathematical solution for dissolution from a rotating disk transport is valid. Dissolution rate was also studied in an exemplary flow-through apparatus associated with the present disclosure. The dissolution medium (10−4N NaOH) was run continuously at 0.5, 1.5, 7.0, 20 mL/min. Triamterene free base was compressed into the insert by a mini-vise. Since a pressure reading is not possible on this vise, the mass of the drug in the insert was recorded and the porosity was calculated by using the dimensions of the insert, thickness of the drug compact and true density of the Triamterene free base as measured by pycnometry. Porosity of 10% or less was considered acceptable. Triamterene was detected via fluorescence with excitation at 370 nm and emission at 432 nm. The rotating disk results are shown in FIG. 29 for each rotation speed. As expected, an increase in rotation speed leads to an increase in dissolution rate. The dissolution rate for the entire experiment is represented by the slope of this line. Because this is the Triamterene free base dissolving in alkaline conditions, it is not expected to undergo a conversion, thus a constant dissolution rate vs. time curve is expected. However, interesting results can be seen in FIG. 30 showing dissolution rate vs. time data. […] The data from FIGS. 32 and 33 were used to estimate the dissolution rate at each volumetric flow rate for FIG. 34.

[2] = Rotating disk (Wood's die) dissolution, 10−4N NaOH; details: for Dissolution Rate: rotating disk, 900 ml 10−4N NaOH, room temperature
Description: In order to test an apparatus associated with the present disclosure against a rotating disk apparatus, the dissolution rate of Triamterene free base was determined in dilute NaOH. The dissolution media was chosen to be 10−4N NaOH, since at alkaline pH, the Triamterene free base is not ionized. This condition makes theoretical comparisons of flux easier since it is not necessary to account for multiple species (ionized and unionized species) and Levich's mathematical solution for dissolution from a rotating disk transport is valid. Rotating disk dissolution was run in a standard dissolution apparatus at 25, 80 and 200 rpm. The dissolution medium was 900 ml of 10−4 N NaOH at room temperature (since the flow cell has no temperature control at this time). The Wood's die apparatus has an exposed drug surface area of 0.5 cm^2. Approximately 125 mg of Triamterene free base was compressed into the die using a Carver Press. The compression conditions were 5000 lbs of force for 30 seconds. Triamterene was detected via fluorescence with excitation at 370 nm and emission at 432 nm. The rotating disk results are shown in FIG. 29 for each rotation speed. As expected, an increase in rotation speed leads to an increase in dissolution rate. The dissolution rate for the entire experiment is represented by the slope of this line. Because this is the Triamterene free base dissolving in alkaline conditions, it is not expected to undergo a conversion, thus a constant dissolution rate vs. time curve is expected. However, interesting results can be seen in FIG. 30 showing dissolution rate vs. time data. […] The data from FIGS. 32 and 33 were used to estimate the dissolution rate at each volumetric flow rate for FIG. 34.

[3] = Rotating disk dissolution in HCl
Description: Dissolution data are often collected in terms of amount dissolved curve vs. time. This is the case for rotating disk experiments due to the nature of the apparatus, i.e., batch operation. In rotating disk experiments, a change in solid form (such as salt form, polymorph form, amorphous to crystalline form) is indicated by a change in slope in a cumulative dissolution curve. A change of slope signifies a change in dissolution rate. […] In FIG. 20, the change in slope occurs at approximately 45 minutes, although it is difficult to determine an exact time due to some curvature in the plot.
These phenomena can be better understood by plotting a dissolution rate vs. time curve. For the rotating disk, data are still collected in a cumulative manner; however, further data treatment makes a change in slope easier to recognize. From a cumulative amount dissolved curve the slope between each set of adjacent points is taken and plotted against the midpoint of time. Using this method, it is easier to point out the time when the dissolution rate changes and determine the terminal dissolution rate. The resultant plot is a dissolution rate vs. time curve.

[4] = Flow-through apparatus dissolution in HCl with stereomicroscope imaging; details: flow cell
Description: A flow-through apparatus associated with the present disclosure was tested using a model compound. Triamterene free base was chosen as the model compound as this is readily available and there is literature available on its various salt forms. An advantage of an apparatus associated with the present disclosure is that the user is able to observe the solid during dissolution. The following experimental results are preliminary data for a flow-through apparatus experiment (before the compression step was controlled). Approximately 20 mg of a sample drug was compressed in an insert for dissolution. Flow-through experiments were performed using 0.1N or 0.001N HCl as the dissolution medium pumped through a dissolution channel at 5 ml/min and 25 ml/min. Triamterene concentration in the effluent was measured by UV analysis at 370 nm. […] With the flow cell mounted in a jig so that it is tilted slightly, it is possible to capture images that show the face of the drug compact that is exposed to the fluid as well as the “control” dry surface face adjacent to the glass plate. Flow is from left to right in the following figures of Triamterene Free Base Dissolution in 0.1 N HCl at 25 ml/min: FIG. 23 at t=0; FIG. 24 at t=5 min; FIG. 25 at t=10 min; FIG. 26 at t=15 min; FIG. 27 at t=20 min; FIG. 28 at 25 minutes.

Nc1nc(N)c2nc(-c3ccccc3)c(N)nc2n1 [Triamterene free base, Triamterene]
Course of dissolution rate with time ([1]; 0.5-20 mL/min, 10−4N NaOH (FIG. 33)): decrease of dissolution rate with time
Dissolution Rate ([1]; flow rate 0.5 ml/min): 1.1 ug/cm^2min
Dissolution Rate ([1]; flow rate 1.5 ml/min): 1.5 ug/cm^2min
Dissolution Rate ([1]; flow rate 7.0 ml/min): 2.7 ug/cm^2min
Dissolution Rate ([1]; flow rate 20 ml/min): 4.7 ug/cm^2min
Course of dissolution rate with time ([2]; rotating disk, 25, 80 and 200 rpm, 10−4N NaOH (FIG. 30)): initial decrease in the dissolution rate with time
Dissolution Rate ([2]; 25 rpm): 0.8 ug/cm^2min
Dissolution Rate ([2]; 80 rpm): 1.5 ug/cm^2min
Dissolution Rate ([2]; 200 rpm): 2.3 ug/cm^2min
Time of change in slope of cumulative amount dissolved vs. time curve ([3]; rotating disk, 0.001N HCl, 50 rpm, preliminary data (FIG. 20)): approximately 45 minutes
Observable changes of the solid in stereomicroscope images ([4]; 0.001 HCl, 5 mL/min): did not reveal any observable changes
Time after which the dissolution rate is relatively constant ([4]; 0.001 HCl, 5 mL/min (FIG. 22)): 25 min
Salt transformation observed during dissolution ([4]; 0.1N HCl, 25 ml/min): significant hydrochloride salt growth on the drug surface
Time until which the new solid grows before it is washed away with the fluid ([4]; 0.1N HCl, 25 ml/min): 15 min
Observation of drug compact during dissolution ([4]; 0.1N HCl, 25 ml/min, after five minutes (FIG. 24)): nucleation and significant crystal growth has occurred

Triamterene citrate
Comparison of dissolution rate between HCl concentrations ([3]; rotating disk, 0.1, 0.01 or 0.001N HCl): highest dissolution rate in 0.01N HCl
Rank order of dissolution rate with pH ([3]; rotating disk, chloride ion concentration normalized to 0.1N HCl): 0.1N>0.01N>0.001N HCl

— patent publication US7892492B2, “Flow-through apparatus for microscopic investigation of dissolution of pharmaceutical solids” (University of Connecticut, priority 2006, dated 2011)
